Legend:
Mus musculus [1] = assay: Mean survival time against trophozoite induced Plasmodium berghei in mice minus control was evaluated at a dose 640 mg/kg.; type: functional
Mus musculus [2] = assay: Mean survival time against trophozoite induced Plasmodium berghei in mice minus control was evaluated at a dose 40 mg/kg.; type: functional
Mus musculus [3] = assay: Mean survival time against trophozoite induced Plasmodium berghei in mice minus control was evaluated at a dose 160 mg/kg.; type: functional
Mus musculus [4] = assay: Mean survival time against trophozoite induced Plasmodium berghei in mice minus control was evaluated at a dose 320 mg/kg; 2 survived out of 5 animals at 60 days postinjection.; type: functional, organism-based; set-up: dose 320 mg/kg
Mus musculus [5] = assay: Mean survival time against trophozoite induced Plasmodium berghei in mice minus control was evaluated at a dose 640 mg/kg; 7 survived out of 10 animals at 60 days postinjection.; type: functional, organism-based; set-up: dose 640 mg/kg
Mus musculus [6] = assay: Mean survival time against trophozoite induced Plasmodium berghei in mice minus control was evaluated at a dose 80 mg/kg.; type: functional
Mus musculus [7] = assay: Mean survival time against trophozoite induced Plasmodium berghei in mice minus control was evaluated at a dose 160 mg/kg; 4 survived out of 10 animals at 60 days postinjection.; type: functional, organism-based; set-up: dose 160 mg/kg
Mus musculus [8] = assay: Mean survival time against trophozoite induced Plasmodium berghei in mice minus control was evaluated at a dose 20 mg/kg.; type: functional
Mus musculus [9] = assay: Mean survival time against trophozoite induced Plasmodium berghei in mice minus control was evaluated at a dose 80 mg/kg; 3 cured at 60 days postinjection.; type: functional, organism-based; set-up: dose 80 mg/kg
Mus musculus [10] = assay: Mean survival time against trophozoite induced Plasmodium berghei in mice minus control was evaluated at a dose 2.5 mg/kg.; type: functional
Mus musculus [11] = assay: Mean survival time against trophozoite induced Plasmodium berghei in mice minus control was evaluated at a dose 10 mg/kg.; type: functional
Mus musculus [12] = assay: Mean survival time against trophozoite induced Plasmodium berghei in mice minus control was evaluated at a dose 40 mg/kg; 1 cured at 60 days postinjection.; type: functional, organism-based; set-up: dose 40 mg/kg
Mus musculus [13] = assay: Mean survival time against trophozoite induced Plasmodium berghei in mice minus control was evaluated at a dose 160 mg/kg; 5 cured at 60 days postinjection.; type: functional, organism-based; set-up: dose 160 mg/kg
Mus musculus [14] = assay: Mean survival time against trophozoite induced Plasmodium berghei in mice minus control was evaluated at a dose 320 mg/kg; 2 cured and 3 toxic death; type: functional, organism-based; set-up: dose 320 mg/kg
Mus musculus [15] = assay: Mean survival time against trophozoite induced Plasmodium berghei in mice minus control was evaluated at a dose 1.25 mg/kg.; type: functional
Mus musculus [16] = assay: Mean survival time against trophozoite induced Plasmodium berghei in mice minus control was evaluated at a dose 640 mg/kg; 1 cured and 2 toxic death; type: functional, organism-based; set-up: dose 640 mg/kg
Mus musculus [17] = assay: Mean survival time against trophozoite induced Plasmodium berghei in mice minus control was evaluated at a dose 5 mg/kg.; type: functional
Mus musculus [18] = assay: Mean survival time against trophozoite induced Plasmodium berghei in mice minus control was evaluated at a dose 80 mg/kg; 5 survived out of 5 animals at 60 days postinjection; type: functional, organism-based; set-up: dose 80 mg/kg
Mus musculus [19] = assay: Mean survival time against trophozoite induced Plasmodium berghei in mice minus control was evaluated at a dose 320 mg/kg; 3 toxic death occurred out of 5 animals on days 2-5 after injection; type: functional, organism-based; set-up: dose 320 mg/kg
Mus musculus [20] = assay: Mean survival time against trophozoite induced Plasmodium berghei in mice minus control was evaluated at a dose 640 mg/kg; 10 toxic death occurred out of 10 animals on days 2-5 after injection; type: functional, organism-based; set-up: dose 640 mg/kg
Mus musculus [21] = assay: Mean survival time against trophozoite induced Plasmodium berghei in mice minus control was evaluated at a dose 40 mg/kg; 4 survived out of 10 animals at 60 days postinjection; type: functional, organism-based; set-up: dose 40 mg/kg
Mus musculus [22] = assay: Mean survival time against trophozoite induced Plasmodium berghei in mice minus control was evaluated at a dose 160 mg/kg; 2 toxic death occurred out of 10 animals on days 2-5 after injection; type: functional, organism-based; set-up: dose 160 mg/kg
Mus musculus [23] = assay: Mean survival time against trophozoite induced Plasmodium berghei in mice minus control was evaluated at a dose 160 mg/kg; 10 survived out of 10 animals at 60 days postinjection.; type: functional, organism-based; set-up: dose 160 mg/kg
Mus musculus [24] = assay: Mean survival time against trophozoite induced Plasmodium berghei in mice minus control was evaluated at a dose 640 mg/kg; 5 survived out of 5 animals at 60 days postinjection.; type: functional, organism-based; set-up: dose 640 mg/kg
Mus musculus [25] = assay: Mean survival time against trophozoite induced Plasmodium berghei in mice minus control was evaluated at a dose 40 mg/kg; 4 survived out of 10 animals at 60 days postinjection.; type: functional, organism-based; set-up: dose 40 mg/kg
Mus musculus [26] = assay: Mean survival time against trophozoite induced Plasmodium berghei in mice minus control was evaluated at a dose 320 mg/kg; 10 survived out of 10 animals at 60 days postinjection.; type: functional, organism-based; set-up: dose 320 mg/kg
Mus musculus [27] = assay: Mean survival time against trophozoite induced Plasmodium berghei in mice minus control was evaluated at a dose 80 mg/kg; 10 survived out of 10 animals at 60 days postinjection.; type: functional, organism-based; set-up: dose 80 mg/kg
Mus musculus [28] = assay: Mean survival time against trophozoite induced Plasmodium berghei in mice minus control was evaluated at a dose 320 mg/kg.; type: functional
Mus musculus [29] = assay: Mean survival time against trophozoite induced Plasmodium berghei in mice minus control was evaluated at a dose 160 mg/kg; 1 survived out of 5 animals at 60 days postinjection.; type: functional, organism-based; set-up: dose 160 mg/kg
Mus musculus [30] = assay: Mean survival time against trophozoite induced Plasmodium berghei in mice minus control was evaluated at a dose 40 mg/kg; 8 survived out of 10 animals at 60 days postinjection.; type: functional, organism-based; set-up: dose 40 mg/kg
Mus musculus [31] = assay: Mean survival time against trophozoite induced Plasmodium berghei in mice minus control was evaluated at a dose 80 mg/kg; 4 survived out of 5 animals at 60 days postinjection.; type: functional, organism-based; set-up: dose 80 mg/kg
Mus musculus [32] = assay: Mean survival time against trophozoite induced Plasmodium berghei in mice minus control was evaluated at a dose 160 mg/kg; 5 survived out of 5 animals at 60 days postinjection.; type: functional, organism-based; set-up: dose 160 mg/kg
Mus musculus [33] = assay: Mean survival time against trophozoite induced Plasmodium berghei in mice minus control was evaluated at a dose 80 mg/kg; type: functional
Mus musculus [34] = assay: Mean survival time against trophozoite induced Plasmodium berghei in mice minus control was evaluated at a dose 40 mg/kg; 1 survived occurred on days 2-5 after injection; type: functional
Mus musculus [35] = assay: Mean survival time against trophozoite induced Plasmodium berghei in mice minus control was evaluated at a dose 640 mg/kg; 5 toxic death occurred on days 2-5 after injection; type: functional, organism-based; set-up: dose 640 mg/kg
Mus musculus [36] = assay: Mean survival time against trophozoite induced Plasmodium berghei in mice minus control was evaluated at a dose 80 mg/kg; 2 survived occurred on days 2-5 after injection; type: functional, organism-based; set-up: dose 80 mg/kg
Mus musculus [37] = assay: Mean survival time against trophozoite induced Plasmodium berghei in mice minus control was evaluated at a dose 80 mg/kg; 2 survived occurred on days 2-5 after injection.; type: functional
Mus musculus [38] = assay: Mean survival time against trophozoite induced Plasmodium berghei in mice minus control was evaluated at a dose 320 mg/kg; 2 toxic death and 3 survived occurred on days 2-5 after injection; type: functional, organism-based; set-up: dose 320 mg/kg
Mus musculus [39] = assay: Mean survival time against trophozoite induced Plasmodium berghei in mice minus control was evaluated at a dose 160 mg/kg; 5 survived occurred on days 2-5 after injection; type: functional, organism-based; set-up: dose 160 mg/kg

## CC(c1ccc(Cl)c(Cl)c1)N(C)c1ccc2nc(N)nc(N)c2n1 (centres undefined)
Mus musculus [1]
  Delta MST: 3.9 days
Mus musculus [2]
  Delta MST: 1.7 days
Mus musculus [3]
  Delta MST: 2.3 days

## Nc1nc(N)c2nc(N3CCCCC3Cc3ccc(Cl)cc3)ccc2n1 (centres undefined)
Mus musculus [4]
  Delta MST: Survivals 2/5
Mus musculus [5]
  Delta MST: Survivals 7/10
Mus musculus [2]
  Delta MST: 5.1 days
Mus musculus [6]
  Delta MST: 9.1 days
Mus musculus [7]
  Delta MST: Survivals 4/10
Mus musculus [8]
  Delta MST: 2.9 days

## CCc1nc(N)nc(N)c1-c1ccc(Cl)cc1 [PYRIMETHAMINE]
Mus musculus [9]
  Delta MST: Survivals 3
Mus musculus [10]
  Delta MST: 4.7 days
Mus musculus [11]
  Delta MST: 6.1 days
Mus musculus [12]
  Delta MST: Survivals 1
Mus musculus [13]
  Delta MST: Survivals 5
Mus musculus [14]
  Delta MST: Survivals 2 Toxic deaths 3
Mus musculus [15]
  Delta MST: 3.1 days
Mus musculus [16]
  Delta MST: Survivals 1 Toxic Deaths 2
Mus musculus [8]
  Delta MST: 7.7 days
Mus musculus [17]
  Delta MST: 5.3 days

## CCN(Cc1ccccc1)c1ccc2nc(N)nc(N)c2n1
Mus musculus [18]
  Delta MST: Survivals 5/5
Mus musculus [19]
  Delta MST: Toxic Deaths 3/5
Mus musculus [20]
  Delta MST: Toxic Deaths 10/10
Mus musculus [21]
  Delta MST: Survivals 4/10
Mus musculus [8]
  Delta MST: 9.7 days
Mus musculus [22]
  Delta MST: Toxic Deaths 2/10

## Nc1nc(N)c2cc(N(C=O)Cc3ccc(Cl)c(Cl)c3)ccc2n1
Mus musculus [11]
  Delta MST: 4.3 days
Mus musculus [23]
  Delta MST: Survivals 10/10
Mus musculus [24]
  Delta MST: Survivals 5/5
Mus musculus [25]
  Delta MST: Survivals 4/10
Mus musculus [26]
  Delta MST: Survivals 10/10
Mus musculus [8]
  Delta MST: 8.2 days
Mus musculus [27]
  Delta MST: Survivals 10/10

## CCN(Cc1ccc(Cl)cc1)c1ccc2nc(N)nc(N)c2n1
Mus musculus [1]
  Delta MST: 1.1 days
Mus musculus [2]
  Delta MST: 0.9 days
Mus musculus [3]
  Delta MST: 0.9 days

## CN(Cc1ccc(C(F)(F)F)cc1)c1ccc2nc(N)nc(N)c2n1
Mus musculus [1]
  Delta MST: 2.5 days
Mus musculus [28]
  Delta MST: 2.9 days
Mus musculus [29]
  Delta MST: Survivals 1/5
Mus musculus [30]
  Delta MST: Survivals 8/10
Mus musculus [31]
  Delta MST: Survivals 4/5
Mus musculus [8]
  Delta MST: 8.1 days

## Nc1nc(N)c2nc(N3CCCCC3Cc3ccccc3)ccc2n1 (centres undefined)
Mus musculus [32]
  Delta MST: Survivals 5/5
Mus musculus [2]
  Delta MST: 4.9 days
Mus musculus [33]
  Delta MST: 8.2 days
Mus musculus [26]
  Delta MST: Survivals 10/10
Mus musculus [8]
  Delta MST: 3 days

## CC1(C)N=C(N)N=C(N)N1c1ccc(Cl)cc1.Cl [CHLORCYCLOGUANIL HYDROCHLORIDE]
Mus musculus [34]
  Delta MST: 13.4 days
Mus musculus [11]
  Delta MST: 4.9 days
Mus musculus [35]
  Delta MST: Toxic Deaths 5
Mus musculus [36]
  Delta MST: Survivals 2
Mus musculus [37]
  Delta MST: 21.6 days
Mus musculus [38]
  Delta MST: Survivals 3 Toxic Deaths 2
Mus musculus [39]
  Delta MST: Survivals 5
Mus musculus [8]
  Delta MST: 7.9 days

— ChEMBL document CHEMBL1122946, “Folate antagonists. 21. Synthesis and antimalarial properties of 2,4-diamino-6-(benzylamino)pyrido[3,2-d]pyrimidines” (1985)
